Patent publication US20120322150A1, “Mechanism and Method for Regulating Glycogen Synthase Kinase 3 (GSK3)-Related Kinases” (CARNEGIE INSTITUTION OF WASHINGTON, priority 2009, published 2012)
Peptide text beside a SMILES is read from it. * marks the point of attachment. Cbz = O=C(OCc1ccccc1)*

Tests used:
[1] = target: T1, BIN2 (Arabidopsis thaliana, UniProt Q39011); assay: PP1 dephosphorylation of GST-tagged BIN2; assay type: biochemical; conditions: PP1 purified from E. coli
T1 construct: made in house; host or cells: E. coli
T1 sequence (Q39011 1-380): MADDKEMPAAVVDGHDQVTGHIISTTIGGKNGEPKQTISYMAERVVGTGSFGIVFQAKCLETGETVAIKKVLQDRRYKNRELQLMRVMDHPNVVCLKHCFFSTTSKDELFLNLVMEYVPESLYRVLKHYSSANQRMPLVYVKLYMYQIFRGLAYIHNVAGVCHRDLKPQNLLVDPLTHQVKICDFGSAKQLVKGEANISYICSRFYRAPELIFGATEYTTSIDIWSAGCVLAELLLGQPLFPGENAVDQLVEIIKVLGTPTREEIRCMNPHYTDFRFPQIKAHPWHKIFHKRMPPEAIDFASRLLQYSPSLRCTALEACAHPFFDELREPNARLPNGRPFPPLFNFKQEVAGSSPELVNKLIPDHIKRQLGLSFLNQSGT
Procedure: (§1) It was next examined whether the mammalian homolog to BSU1, PP1, would dephosphorylate BIN2. A GST-tagged BIN2 was isolated from cells and incubated with PP1 purified from E. coli cells expressing the phosphatase.

[2] = tested on: AtSK12; assay: AtSK12 protein accumulation in transgenic plants; assay type: in vivo, Arabidopsis; set-up: dose or concentration left out as unconfirmed; conditions: AtSK12-myc plants; BRZ medium for 5 days; BL for 30 min
Procedure: (§2) Plant materials were ground with liquid nitrogen and resuspended in IP buffer (50 mM Tris, pH 7.5, 150 mM NaCl, 5% Glycerol, 1% Triton X-100, 1 mM PMSF and 1× protease inhibitor cocktail (Sigma)). Filtered protein extracts were centrifuged at 20,000 g for 10 min and resulting supernatant was incubated with anti-GFP antibody bound Protein A beads or anti-myc agarose beads for 1 hr. Beads were washed 5 times with washing buffer (50 MM Tris, pH 7.5, 150 mM NaCl, 0.2% Triton X-100, 1 mM PMSF and 1× Protease inhibitor cocktail). The beads were resuspended with a small volume of kinase buffer (20 mM Tris, pH 7.5, 1 mM MgCl2, 100 mM NaCl and) mM DTT) and used for in vitro phosphatase assays, or immunoprecipitated proteins were eluted with buffer containing 2% SDS and analyzed by SDS-PAGE and immunoblotting.

[3] = tested on: BIN2; assay: BIN2-myc / bin2-1-myc degradation in transgenic plants; assay type: in vivo, Arabidopsis
Procedure: as §2

[4] = target: T2, PP1 (Homo sapiens, UniProt P36873); assay: Inhibition of PP1 activity on BIN2; assay type: biochemical, mammalian
T2 construct: made in house; host or cells: E. coli
Procedure: as §1

[5] = tested on: BIN2; assay: BIN2-myc / bin2-1-myc protein level in transformed tobacco leaves; assay type: in vivo; conditions: 1 μM BL for 1 hr
Procedure: Transformation by Agrobacterium infiltration, observations of subcellular localization and BiFC signal in tobacco or Arabidopsis were performed as described previously 5. Fluorescence of YFP was visualized by using a spinning-disk confocal microscope (Leica Microsystems, Heerbruag, Germany).

[6] = tested on: AtSK12; assay: pTyr dephosphorylation of AtSK12 in plants; assay type: in vivo, Arabidopsis; conditions: 10 μM MG132 then 0.25 μM BL
Procedure: as §2

[7] = tested on: BIN2; assay: pTyr200 of BIN2 in plants after BL treatment; assay type: in vivo, Arabidopsis; conditions: in the presence of MG132; 0.2 or 0.25 μM BL
Procedure: as §2
GST-BIN2 or GST-bin2-1 was incubated with MBP-BSU1 or BSU1-YFP beads for 3 Ins and subjected to immunoblotting. pTyr200 residue of BIN2 was detected by anti-phospho-GSK3a/f3 (Tyr279/216) monoclonal antibody, 5G-2F (Millipore, Temecula, Calif.) and re-probed with HRP conjugated anti-GST antibody (Santa Cruz Biotechnology, Santa Cruz, Calif.). The det2 plants were treated with 0.2 μM BL after 1 hr incubation with 10 μM MG 132. AntiBIN2 serum was developed in rabbits using GST-BIN2 as an immunogen. Monoclonal anti-GSK3α/β antibody was purchased from Invitrogen (Carlsbad, Calif.).

[8] = tested on: BIN2; assay: Immunoblotting of 2-DE of TAP-BIN2 from BL-treated plants; assay type: in vivo, Arabidopsis; conditions: 0.25 μM BL, 2 hrs, TAP-BIN2 transgenic plants
From the text: Total proteins were extracted from BL-treated or untreated 35S::TAP-BIN2 plants for two-dimensional gel electrophoresis (2-DE) as described previously. The amount of BL-treated and untreated TAP-BIN2 proteins was normalized with Western blot. Equal amount of TAP-BIN2 proteins was separated by 2-DE using an immobilized pH gradient gel strip (7 cm, pH 3-10 non-linear) and 7.5% SDS-PAGE gel. The blots were probed with anti-PAP antibody (Sigma, St. Louis, Mo.).

[9] = tested on: BSU1 and BIN2; assay: Co-immunoprecipitation of BSU1-YFP and BIN2-myc after BL treatment; assay type: in vivo, Arabidopsis; conditions: plants grown on BRZ, 10 μM MG-132 1 hr, 0.2 μM BL 15 min
Procedure: as §2

[10] = target: T1, BIN2; assay: In vitro BIN2 inhibition assay (BIN2 phosphorylation of BZR1); assay type: biochemical; conditions: BSU1-YFP immunoprecipitated from plants treated with BL versus untreated plants
Procedure: In vitro BIN2 inhibition assays were performed by 3 hrs co-incubation of MBP-BZR1, GST BIN2, GST BSU1 and ^32P-γATP or pre-incubation of GST-BIN2 with GST-BSU1 for various time followed by adding MBP-BZR1 and 32P-γATP. The examine activities of partial BSU1, N-terminal Kelch (1-363th amino acid) and C-terminal phosphatase (364-793th amino acid) region were used. GST, GST-BSU1, GSTBSU1-Ketch and GST-BSU1-phosphatase were pre-incubated with GST-BIN2 for 1 hr, and further incubated with MBP-BZR1 and ^32P-γATP for 3 hrs.
To test activities of BSU1-YFP, anti-GFP antibody-Protein A beads were used to immunoprecipitate BSU1-YFP from extracts of BSU1-YFP transgenic plants, and non-transgenic wild type plants were used as control. The beads were incubated with GST-BIN2 or GST bin2-1 for 1 hr, and then the beads were removed. The BSU1-treated GST-BIN2 or GST-bin2-1 was further incubated with MBP-BZR1 and ^32P-γATP for 3 hrs.

T2 sequence (P36873 whole entry): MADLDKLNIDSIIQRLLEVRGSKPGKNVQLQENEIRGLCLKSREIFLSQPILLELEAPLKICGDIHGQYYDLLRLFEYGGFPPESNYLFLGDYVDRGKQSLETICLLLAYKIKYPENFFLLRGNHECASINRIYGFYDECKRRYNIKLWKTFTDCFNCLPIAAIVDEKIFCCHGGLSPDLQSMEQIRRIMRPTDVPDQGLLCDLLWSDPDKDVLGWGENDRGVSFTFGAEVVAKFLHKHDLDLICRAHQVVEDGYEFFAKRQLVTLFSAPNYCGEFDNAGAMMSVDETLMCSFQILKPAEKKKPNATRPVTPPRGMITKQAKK

## PP1: mammalian homolog to BSU1, protein phosphatase-1, purified from E. coli
[1]
  dephosphorylation of BIN2 tyrosine200: increased dephosphorylation of BIN2 tyrosine200

## CC(O)(c1ccccc1)C(Cc1ccc(Cl)cc1)n1cncn1 (stereo not drawn) [brassinazole]
[2]
  AtSK12 protein stability: stabilized

## CC(C)C[C@@H](C=O)NC(=O)[C@H](CC(C)C)NC(=O)[C@H](CC(C)C)NC(=O)OCc1ccccc1 [MG132] (Cbz-Leu-Leu-Leu-aldehyde)
[3]; proteasome inhibitor, 10 μM
  BR-induced BIN2 depletion: prevents BR-induced BIN2 depletion

## manganese chloride
[4]
  enzymatic activity of PP1 on BIN2: also inhibited the enxymatic activity of PP1 on BIN2

## CC(C)[C@H](C)[C@@H](O)[C@H](O)[C@@H](C)[C@H]1CC[C@H]2[C@@H]3COC(=O)[C@H]4C[C@H](O)[C@H](O)C[C@]4(C)[C@H]3CC[C@]12C [BL, brassinolide]
[5]
  level of BIN2 and bin2-1 proteins: reduces the level of BIN2 but not bin2-1 proteins
[6]
  phosphorylation of AtSK12 Tyr233: greatly reduced phosphorylation of AtSK12 Tyr233
[3]; transgenic plants, 0.25 μM BL for 30 min
  degradation of BIN2 and bin2-1: induces degradation of BIN2 but not bin2-1
[7]
  phosphorylation of Tyr200 of wild type BIN2 or BIN2-myc in plants: reduced the phosphorylation of Tyr200
[2]
  AtSK12 protein stability: destabilized
[8]
  phosphorylation forms of epitope-tagged BIN2 protein: caused disappearance of the acidic forms and an increase of the basic forms
[9]
  interaction of BSU1 and BIN2: BR-induced interaction of BSU1 and BIN2
[10]
  BIN2-inhibiting activity of BSU1-YFP from BL-treated plants: more effective inhibition of BIN2 phosphorylation of BZR1
